Tests used:
FLAG-p38δ = target: T1, FLAG-p38δ (Homo sapiens, UniProt O15264); assay: Ubiquitination assay, HeLa cells co-transfected with HA-Ub and FLAG-p38δ; type: cell-based; details: 1 μM
T1 construct: expressed in transfected cells; host or cells: HeLa cells, transient transfection with Lipofectamine 2000
T1 sequence (O15264 1-365): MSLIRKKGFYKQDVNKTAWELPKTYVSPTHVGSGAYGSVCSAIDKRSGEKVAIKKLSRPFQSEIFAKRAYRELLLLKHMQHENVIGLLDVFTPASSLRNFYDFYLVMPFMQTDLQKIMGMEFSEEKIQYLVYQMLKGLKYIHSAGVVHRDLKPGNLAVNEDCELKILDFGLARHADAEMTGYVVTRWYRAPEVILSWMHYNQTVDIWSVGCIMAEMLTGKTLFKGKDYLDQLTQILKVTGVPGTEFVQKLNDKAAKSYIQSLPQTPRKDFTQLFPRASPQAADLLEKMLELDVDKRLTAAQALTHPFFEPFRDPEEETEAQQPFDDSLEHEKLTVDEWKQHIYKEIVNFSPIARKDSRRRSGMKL
Text: FIGS. 15A, 15B, and 15C. Differential p38δ:PROTAC:VHL ternary complex affinities result in distinct cellular ubiquitination outcomes. (A) Both exemplary compound 50 and 46 pull-down p38δ in vitro, however compound 46 maintains ternary complex at lower concentrations. As in FIG. 14A, GST-tagged VBC was used as a bait to trap recombinant p38δ in the presence of vehicle (DMSO) or the indicated concentrations of compound 50 or 46. The rightmost lane represents a 1:25 dilution of initial input protein used in each pull-down. […] Samples were assessed by western blot and CUL2 and α-tubulin serve as positive and negative GST-VBC immunoprecipitation controls, respectively. […] FLAGimmunoprecipitated lysates were separated by SDS-PAGE and assessed via western blots detecting HA (Ub). […]
HeLa cells (2×10^6) were seeded into 10 cm dishes and allowed to adhere overnight. […] Lysates were spun down at 14,000×g at 4° C. for 20 minutes and protein content was measured by Pierce BCA Protein Assay (ThermoFisher Scientific). […] Immunoprecipitated protein was eluted off of the beads by heating at 95° C. for 5 minutes and the supernatant was run on an SDS-PAGE gel and evaluated for the presence of immunoprecipitated FLAG-tagged proteins (anti-FLAG M2, Sigma #F1804), as well as ubiquitinated FLAG-tagged proteins (anti-HA-tag (6E2), CST #2367). […]

FLAG-p38α = target: T2, FLAG-p38α (Homo sapiens, UniProt Q16539); assay: Ubiquitination assay, HeLa cells co-transfected with HA-Ub and FLAG-p38α; type: cell-based; details: 500 nM, 1 hour
T2 construct: expressed in transfected cells; host or cells: HeLa
T2 sequence (Q16539 whole entry): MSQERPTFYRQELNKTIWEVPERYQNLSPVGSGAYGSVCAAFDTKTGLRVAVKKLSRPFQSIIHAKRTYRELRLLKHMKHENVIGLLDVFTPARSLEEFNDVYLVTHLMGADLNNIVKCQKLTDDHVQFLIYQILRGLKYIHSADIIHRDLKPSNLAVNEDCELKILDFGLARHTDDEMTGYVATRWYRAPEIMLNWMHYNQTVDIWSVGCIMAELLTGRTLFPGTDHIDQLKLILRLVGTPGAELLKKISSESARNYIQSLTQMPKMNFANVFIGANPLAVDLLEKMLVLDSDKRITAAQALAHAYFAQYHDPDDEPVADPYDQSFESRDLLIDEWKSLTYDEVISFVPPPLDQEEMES
Protocol: FIGS. 14A, 14B, and 14C. p38α selectivity is discriminated by ternary complex formation. (A) Only p38α incubated in the presence of exemplary compound 50 can be immunoprecipitated with GST-tagged VHL/EloB/EloC (VBC). Immobilized VBC was used as a bait to trap purified p38α in the presence of vehicle (DMSO), compound 50, or compound 46 (represented in micromolar concentrations). The rightmost lane represents a 1:25 dilution of initial input protein used in each pull-down. (B) Proximity-based AlphaLISA assay detects significant p38α:compound 50:VHL ternary complex, but no p38α:compound 46:VHL ternary complex. His-p38α and GST-VBC were incubated in the presence of increasing concentrations of compound 50 and compound 46 and the extent of ternary complex formation was assessed by excitation with incident light with 1=680 nm and capture of the emission light at 1=615 nm. Error bars represent the SD from quadruplicate experiments. (C) Only exemplary compound 50 ubiquitinates FLAG-p38α in HeLa cells. […] FLAGimmunoprecipitated lysates were separated by SDS-PAGE and assessed via western blots detecting HA (Ub). […]
HeLa cells (2×10^6) were seeded into 10 cm dishes and allowed to adhere overnight. […] Lysates were spun down at 14,000×g at 4° C. for 20 minutes and protein content was measured by Pierce BCA Protein Assay (ThermoFisher Scientific). […]

Compound | ubiquitination of FLAG-immunoprecipitated p38δ (FLAG-p38δ) | ubiquitination of FLAG-p38α (FLAG-p38α)
COc1cc2c(Oc3ccc(NC(=O)C4(C(=O)Nc5ccc(F)cc5)CC4)cc3F)ccnc2cc1OCCOCCOCCOc1cc(-c2scnc2C)ccc1CNC(=O)[C@@H]1C[C@@H](O)CN1C(=O)[C@H](C(C)C)N1Cc2ccccc2C1=O [compound 46] | levels of ubiquitination of FLAG-immunoprecipitated p38δ greater than control cells | this effect was not seen
COc1cc2c(Oc3ccc(NC(=O)C4(C(=O)Nc5ccc(F)cc5)CC4)cc3F)ccnc2cc1OCCCCOCCCCOCC(=O)N[C@H](C(=O)N1C[C@H](O)C[C@H]1C(=O)NCc1ccc(-c2scnc2C)cc1)C(C)(C)C [compound 50, N-(3-fluoro-4-((7-(4-(4-(2-(((S)-1-((2S,4R)-4-hydroxy-2-((4-(4-methylthiazol-5-yl)benzyl)carbamoyl)pyrrolidin-1-yl)-3,3-dimethyl-1-oxobutan-2-yl)amino)-2-oxoethoxy)butoxy)buto-xy)-6-methoxyquinolin-4-yl)oxy)phenyl)-N-(4-fluorophenyl)cyclopropane-1,1-dicarboxa-mide] | far less abundant | substantial ubiquitination

Reference: US20180353501A1 (Arvinas, Inc., priority 2017, published 2018)
